Test results reported in patent US20070021434A1, “NON-NUCLEOSIDE ANTI-HEPACIVIRUS AGENTS AND USES THEREOF” (Migenix Inc., priority 2005, published 2007).
Peptide text beside a SMILES is read from it. * marks the point of attachment. Fmoc = O=C(OCC1c2ccccc2-c2ccccc21)*; Boc = CC(C)(C)OC(=O)*

target: HCV RdRp (NS5B) (UniProt P26663); type: biochemical, hepatitis C virus
Sequence (P26663 whole entry, looked up): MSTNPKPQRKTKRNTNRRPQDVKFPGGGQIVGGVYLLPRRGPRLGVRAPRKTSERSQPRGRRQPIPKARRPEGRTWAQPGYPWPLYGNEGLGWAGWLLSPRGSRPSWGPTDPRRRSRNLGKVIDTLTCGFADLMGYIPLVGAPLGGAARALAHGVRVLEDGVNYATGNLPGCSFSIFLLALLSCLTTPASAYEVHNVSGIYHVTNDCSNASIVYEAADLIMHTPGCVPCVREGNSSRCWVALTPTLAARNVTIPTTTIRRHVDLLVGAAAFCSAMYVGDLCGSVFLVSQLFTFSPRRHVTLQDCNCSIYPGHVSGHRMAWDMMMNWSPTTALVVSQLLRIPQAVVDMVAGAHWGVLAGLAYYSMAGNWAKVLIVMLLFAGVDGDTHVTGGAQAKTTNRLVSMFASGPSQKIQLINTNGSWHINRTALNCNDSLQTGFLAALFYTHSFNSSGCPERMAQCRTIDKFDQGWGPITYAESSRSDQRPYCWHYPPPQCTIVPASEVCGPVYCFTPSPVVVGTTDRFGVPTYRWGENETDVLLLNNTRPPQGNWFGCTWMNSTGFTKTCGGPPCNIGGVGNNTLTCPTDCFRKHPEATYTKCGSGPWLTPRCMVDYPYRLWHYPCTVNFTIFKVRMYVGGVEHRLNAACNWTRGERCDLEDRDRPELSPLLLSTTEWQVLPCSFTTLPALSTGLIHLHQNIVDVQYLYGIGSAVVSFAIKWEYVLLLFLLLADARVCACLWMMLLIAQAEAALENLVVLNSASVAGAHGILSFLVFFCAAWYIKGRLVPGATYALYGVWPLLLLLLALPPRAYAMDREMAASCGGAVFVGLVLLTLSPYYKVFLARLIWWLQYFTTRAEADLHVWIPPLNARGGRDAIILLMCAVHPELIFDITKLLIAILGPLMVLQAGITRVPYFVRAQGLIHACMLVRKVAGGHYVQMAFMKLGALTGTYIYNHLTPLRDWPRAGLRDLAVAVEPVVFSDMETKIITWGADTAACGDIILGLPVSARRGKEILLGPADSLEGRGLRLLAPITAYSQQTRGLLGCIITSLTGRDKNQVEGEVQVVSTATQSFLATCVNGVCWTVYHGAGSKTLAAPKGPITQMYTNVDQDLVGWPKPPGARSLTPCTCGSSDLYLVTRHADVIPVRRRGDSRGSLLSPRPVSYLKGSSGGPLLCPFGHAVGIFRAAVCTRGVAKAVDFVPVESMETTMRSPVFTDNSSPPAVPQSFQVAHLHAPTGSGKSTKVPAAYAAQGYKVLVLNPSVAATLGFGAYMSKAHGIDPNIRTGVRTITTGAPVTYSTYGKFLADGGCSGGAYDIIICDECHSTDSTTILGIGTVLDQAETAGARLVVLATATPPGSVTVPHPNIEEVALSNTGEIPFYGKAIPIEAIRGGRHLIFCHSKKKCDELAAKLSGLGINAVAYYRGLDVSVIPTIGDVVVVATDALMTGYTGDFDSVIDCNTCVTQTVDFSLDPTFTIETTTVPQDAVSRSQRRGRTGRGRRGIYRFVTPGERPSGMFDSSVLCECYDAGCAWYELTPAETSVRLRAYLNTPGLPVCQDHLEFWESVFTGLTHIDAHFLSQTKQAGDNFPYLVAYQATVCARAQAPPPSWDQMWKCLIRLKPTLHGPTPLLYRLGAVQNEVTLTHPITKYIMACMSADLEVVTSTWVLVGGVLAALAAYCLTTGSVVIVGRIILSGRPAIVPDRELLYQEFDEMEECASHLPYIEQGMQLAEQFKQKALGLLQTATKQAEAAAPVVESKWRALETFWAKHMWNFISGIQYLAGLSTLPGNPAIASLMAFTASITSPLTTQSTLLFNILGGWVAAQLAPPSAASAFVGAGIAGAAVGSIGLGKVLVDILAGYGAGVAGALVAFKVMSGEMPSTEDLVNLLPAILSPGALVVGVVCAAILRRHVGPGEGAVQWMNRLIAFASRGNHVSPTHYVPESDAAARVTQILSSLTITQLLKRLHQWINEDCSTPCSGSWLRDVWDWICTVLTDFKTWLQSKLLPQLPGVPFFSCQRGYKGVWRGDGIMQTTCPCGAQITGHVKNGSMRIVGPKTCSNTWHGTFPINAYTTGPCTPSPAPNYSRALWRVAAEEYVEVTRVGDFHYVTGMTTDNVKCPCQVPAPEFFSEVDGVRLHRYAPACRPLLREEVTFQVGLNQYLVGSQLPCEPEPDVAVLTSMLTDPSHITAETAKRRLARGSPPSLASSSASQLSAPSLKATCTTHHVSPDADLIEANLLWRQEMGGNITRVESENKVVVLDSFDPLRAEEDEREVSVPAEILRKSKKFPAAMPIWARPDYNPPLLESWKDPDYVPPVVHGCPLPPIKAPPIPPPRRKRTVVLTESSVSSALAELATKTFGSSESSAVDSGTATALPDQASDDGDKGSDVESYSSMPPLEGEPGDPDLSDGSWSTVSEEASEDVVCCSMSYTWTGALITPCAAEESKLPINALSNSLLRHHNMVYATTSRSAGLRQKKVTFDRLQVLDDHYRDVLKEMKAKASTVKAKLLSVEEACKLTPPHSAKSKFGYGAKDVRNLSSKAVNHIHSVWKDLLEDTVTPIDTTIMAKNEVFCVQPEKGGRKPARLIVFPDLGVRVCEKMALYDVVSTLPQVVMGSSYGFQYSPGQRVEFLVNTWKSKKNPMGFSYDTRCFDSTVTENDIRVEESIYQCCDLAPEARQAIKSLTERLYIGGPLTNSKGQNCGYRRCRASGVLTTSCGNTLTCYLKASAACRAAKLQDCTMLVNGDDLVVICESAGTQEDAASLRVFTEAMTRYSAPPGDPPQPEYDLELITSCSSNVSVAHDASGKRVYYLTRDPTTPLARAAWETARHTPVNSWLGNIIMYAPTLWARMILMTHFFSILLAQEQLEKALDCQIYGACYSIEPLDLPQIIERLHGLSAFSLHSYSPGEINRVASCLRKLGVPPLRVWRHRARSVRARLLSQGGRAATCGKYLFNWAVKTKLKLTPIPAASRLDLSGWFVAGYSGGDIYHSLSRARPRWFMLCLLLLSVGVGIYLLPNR

Row | SMILES | IC50 [µM]
1 | Cc1ccc(NC(=O)C(CCCCN)NC(=O)CNCc2cccc(C(F)(F)F)c2)cc1 [Compound 351, (S)-6-AMINO-2-[2-(3-TRIFLUOROMETHYL-BENZYLAMINO)-ACETYLAMINO]-HEXANOIC ACID P-TOLYLAMIDE] | > 50
2 | COC(=O)[C@H](Cc1c[nH]c2ccccc12)NC(=O)[C@H](CCCCNC(=O)OC(C)(C)C)NC(=O)OCC1c2ccccc2-c2ccccc21 [Compound 30, (S)-2-[6-TERT-BUTOXYCARBONYLAMINO-2-(S)-((9H-FLUOREN-9-YLMETHOXYCARBONYL)AMINO)-HEXANOYL-AMINO]-3-(1H-INDOL-3-YL)-PROPIONIC ACID METHYL ESTER] (Fmoc-Lys(Boc)-Trp-OMe) | > 50
3 | CC(C)(C)c1ccc(NC(=O)CN(CCCCN)C(=O)Nc2ccc(OCc3ccccc3)cc2)cc1 [Compound 282, 2-[1-(4-AMINO-BUTYL)-3-(4-BENZYLOXY-PHENYL)-UREIDO]-N-(4-TERT-BUTYL-PHENYL)-ACETAMIDE] | > 50
4 | Cc1ccc(NC(=O)[C@H](CCCCN)NC(=O)CNc2cccc(C)c2)cc1 [Compound 355, (S)-6-AMINO-2-(2-M-TOLYLAMINO-ACETYLAMINO)-HEXANOIC ACID P-TOLYLAMIDE] | > 50
5 | Cc1cc(NC(=O)[C@H](CCCCN)NC(=O)Nc2ccc(OCc3ccccc3)cc2)n(-c2ccccc2)n1 [Compound 316, (S)-6-AMINO-2-[3-(4-BENZYLOXY-PHENYL)-UREIDO]-HEXANOIC ACID (5-METHYL-2-PHENYL-2H-PYRAZOL-3-YL)-AMIDE] | 10 to 50
6 | Cc1cc2cc(NC(=O)[C@H](CCCCNC(=O)CN)NC(=O)OCC3c4ccccc4-c4ccccc43)ccc2[nH]1 [Compound 233, (S)-[5-(2-AMINO-ACETYLAMINO)-1-(2-METHYL-1H-INDOL-5-YLCARBAMOYL)-PENTYL]-CARBAMIC ACID 9H-FLUOREN-9-YLMETHYL ESTER] | < 10
7 | N[C@@H](Cc1c[nH]c2ccccc12)C(=O)NCCCC[C@H](NC(=O)OCC1c2ccccc2-c2ccccc21)C(=O)Nc1ccc(CN(C(=O)c2ccco2)C2CCCCC2)cc1 [Compound 35, (S)-[5-[2-(S)-AMINO-3-(1H-INDOL-3-YL)-PROPIONYLAMINO]-1-(4-{[CYCLOHEXYL-(FURAN-2-CARBONYL)-AMINO]-METHYL}-PHENYLCARBAMOYL)-PENTYL]-CARBAMIC ACID 9H-FLUOREN-9-YLMETHYL ESTER] | < 10
8 | Cc1ccc(NC(=O)[C@H](CCCCN)NC(=O)CNCc2ccc(F)cc2)cc1 [Compound 346, (S)-6-AMINO-2-[2-(4-FLUORO-BENZYLAMINO)-ACETYLAMINO]-HEXANOIC ACID P-TOLYLAMIDE] | > 50
9 | NCCCC[C@@H](NC(=O)OCC1c2ccccc2-c2ccccc21)C(=O)Nc1ccc(-c2ccccc2)cc1 [Compound 144, (R)-[5-AMINO-1-(BIPHENYL-4-YLCARBAMOYL)-PENTYL]-CARBAMIC ACID 9H-FLUOREN-9-YLMETHYL ESTER] | < 10
10 | CC(=O)NCCCCC(NC(=O)OCC1c2ccccc2-c2ccccc21)C(=O)Nc1ccc(C)cc1 [Compound 181, (S)-(5-ACETYLAMINO-1-P-TOLYLCARBAMOYL-PENTYL)-CARBAMIC ACID 9H-FLUOREN-9-YLMETHYL ESTER] | > 50
11 | Cc1ccc(NC(=O)[C@@H](CCCN)NC(=O)Nc2ccc(OCc3ccccc3)cc2)cc1 [Compound 192, (R)-5-AMINO-2-[3-(4-BENZYLOXY-PHENYL)-UREIDO]-PENTANOIC ACID P-TOLYLAMIDE] | > 50
12 | Cc1ccc(NC(=O)C(CCCCN)NC(=O)CNCc2ccccc2C(F)(F)F)cc1 [Compound 350, (S)-6-AMINO-2-[2-(2-TRIFLUOROMETHYL-BENZYLAMINO)-ACETYLAMINO]-HEXANOIC ACID P-TOLYLAMIDE] | > 50
13 | Cc1ccc(NC(=O)C(CCCCN)NC(=O)NCCc2ccccc2)cc1 [Compound 134, (S)-6-AMINO-2-(3-PHENETHYL-UREIDO)-HEXANOIC ACID P-TOLYLAMIDE] | > 50
14 | Cc1ccc(NC(=O)C(CCCCCN)NC(=O)OCC2c3ccccc3-c3ccccc32)cc1 [Compound 104, (S)-(6-AMINO-1-P-TOLYLCARBAMOYL-HEXYL)-CARBAMIC ACID 9H-FLUOREN-9-YLMETHYL ESTER] | < 10
15 | Cc1ccc(NC(=O)C(CCCCN)NC(=O)NCCc2ccc(-c3ccccc3)cc2)cc1 [Compound 76, (S)-6-AMINO-2-[3-(2-BIPHENYL-4-YL-ETHYL)-UREIDO]-HEXANOIC ACID P-TOLYLAMIDE] | 10 to 50
16 | O=C(CNC(=O)OCC1c2ccccc2-c2ccccc21)Nc1ccc(CN(C(=O)c2ccco2)C2CCCCC2)cc1 [Compound 18, [(4-{[CYCLOHEXYL-(FURAN-2-CARBONYL)-AMINO]-METHYL}-PHENYLCARBAMOYL)-METHYL]-CARBAMIC ACID 9H-FLUOREN-9-YLMETHYL ESTER] | > 50
17 | Cc1ccc(NC(=O)C(CCCCN)NC(=O)CN(c2ccccc2)C2CCCCC2)cc1 [Compound 354, (S)-6-AMINO-2-[2-(CYCLOHEXYL-PHENYL-AMINO)-ACETYLAMINO]-HEXANOIC ACID P-TOLYLAMIDE] | > 50
18 | Cc1ccc(NC(=O)[C@@H](CCCCN)NC(=O)Nc2cccc(OCc3ccccc3)c2)cc1 [Compound 205, (R)-6-AMINO-2-[3-(3-BENZYLOXY-PHENYL)-UREIDO]-HEXANOIC ACID P-TOLYLAMIDE] | > 50
19 | Cc1ccc(NC(=O)[C@H](CCCCN)NC(=O)Nc2ccc(NCc3ccccc3)cc2)cc1 [Compound 224, (S)-6-AMINO-2-[3-(4-BENZYLAMINO-PHENYL)-UREIDO]-HEXANOIC ACID P-TOLYLAMIDE] | 10 to 50

Row | SMILES | IC50 [µM]
20 | Cc1ccc(NC(=O)[C@H](CCCCN)NC(=O)Nc2cccc(OCc3ccccc3)c2)cc1 [Compound 204, (S)-6-AMINO-2-[3-(3-BENZYLOXY-PHENYL)-UREIDO]-HEXANOIC ACID P-TOLYLAMIDE] | > 50
21 | Cc1ccc(NC(=O)C2CCCCN2C(=O)OCC2c3ccccc3-c3ccccc32)cc1 [Compound 123, (R)-2-P-TOLYLCARBAMOYL-PIPERIDINE-1-CARBOXYLIC ACID 9H-FLUOREN-9-YLMETHYL ESTER] | > 50
22 | Cc1ccc(NC(=O)C(CCCCN)NC(=O)C(N)Cc2c[nH]c3ccccc23)cc1 [Compound 100, (S,S)-6-AMINO-2-[2-AMINO-3-(1H-INDOL-3-YL)-PROPIONYLAMINO]-HEXANOIC ACID P-TOLYLAMIDE] | > 50
23 | Cc1ccc(NC(=O)C(CCCCN(C)C)NC(=O)OCC2c3ccccc3-c3ccccc32)cc1 [Compound 124, (S)-(5-DIMETHYLAMINO-1-P-TOLYLCARBAMOYL-PENTYL)-CARBAMIC ACID 9H-FLUOREN-9-YLMETHYL ESTER] | > 50
24 | NCCCC[C@H](NC(=O)OCC1c2ccccc2-c2ccccc21)C(=O)Nc1ccc(-c2ccccc2)cc1 [Compound 143, (S)-[5-AMINO-1-(BIPHENYL-4-YLCARBAMOYL)-PENTYL]-CARBAMIC ACID 9H-FLUOREN-9-YLMETHYL ESTER] | < 10
25 | CCCCOc1ccc(S(=O)(=O)N[C@@H](CCCCN)C(=O)Nc2ccc(C)cc2)cc1 [Compound 390, (S)-6-AMINO-2-(4-BUTOXY-BENZENESULFONYLAMINO)-HEXANOIC ACID P-TOLYLAMIDE] | > 50
26 | NCCCC[C@H](NC(=O)OCC1c2ccccc2-c2ccccc21)C(=O)Nc1ccncc1 [Compound 232, (S)-[5-AMINO-1-(PYRIDIN-4-YLCARBAMOYL)-PENTYL]-CARBAMIC ACID 9H-FLUOREN-9-YLMETHYL ESTER] | > 50
27 | Cc1ccc(NC(=O)C(Cc2ccc(CN)cc2)NC(=O)OCC2c3ccccc3-c3ccccc32)cc1 [Compound 175, (R)-[2-(4-AMINOMETHYL-PHENYL)-1-P-TOLYLCARBAMOYL-ETHYL]-CARBAMIC ACID 9H-FLUOREN-9-YLMETHYL ESTER] | < 10
28 | Cc1cc2cc(NC(=O)[C@H](Cc3ccc(CN)cc3)NC(=O)OCC3c4ccccc4-c4ccccc43)ccc2[nH]1 [Compound 215, (S)-[2-(4-AMINOMETHYL-PHENYL)-1-(2-METHYL-1H-INDOL-5-YLCARBAMOYL)-ETHYL]-CARBAMIC ACID 9H-FLUOREN-9-YLMETHYL ESTER] | 10 to 50
29 | NCCCC[C@H](NC(=O)OCC1c2ccccc2-c2ccccc21)C(=O)Nc1cccc2[nH]ccc12 [Compound 208, (S)-[5-AMINO-1-(1H-INDOL-4-YLCARBAMOYL)-PENTYL]-CARBAMIC ACID 9H-FLUOREN-9-YLMETHYL ESTER] | < 10
30 | Cc1ccc(NC(=O)C(CCCCN)NS(=O)(=O)c2ccc(-c3ccccc3)cc2)cc1 [Compound 70, (S)-6-AMINO-2-(BIPHENYL-4-SULFONYLAMINO)-HEXANOIC ACID P-TOLYLAMIDE] | > 50
31 | NCCCC[C@@H](NC(=O)NCc1ccc(Cl)c(Cl)c1)C(=O)Nc1ccc(C2CCCCC2)cc1 [Compound 165, (R)-6-AMINO-2-[3-(3,4-DICHLORO-BENZYL)-UREIDO]-HEXANOIC ACID (4-CYCLOHEXYL-PHENYL)-AMIDE] | 10 to 50
32 | NCCC[C@@H](NC(=O)Nc1ccc(OCc2ccccc2)cc1)C(=O)Nc1ccc(C2CCCCC2)cc1 [Compound 202, (R)-5-AMINO-2-[3-(4-BENZYLOXY-PHENYL)-UREIDO]-PENTANOIC ACID (4-CYCLOHEXYL-PHENYL)-AMIDE] | < 10
33 | Cc1ccc(NC(=O)C2CCCCN2C(=O)OCC2c3ccccc3-c3ccccc32)cc1 [Compound 122, (S)-2-P-TOLYLCARBAMOYL-PIPERIDINE-1-CARBOXYLIC ACID 9H-FLUOREN-9-YLMETHYL ESTER] | > 50
34 | Cc1ccc(NC(=O)C(CCCCN)NC(=O)CNc2cccc(C(F)(F)F)c2)cc1 [Compound 364, (S)-6-AMINO-2-[2-(3-TRIFLUOROMETHYL-PHENYLAMINO)-ACETYLAMINO]-HEXANOIC ACID P-TOLYLAMIDE] | > 50
35 | Cc1ccc(NC(=O)[C@H](CCCCN)NC(=O)CNc2ccc(F)cc2)cc1 [Compound 361, (S)-6-AMINO-2-[2-(4-FLUORO-PHENYLAMINO)-ACETYLAMINO]-HEXANOIC ACID P-TOLYLAMIDE] | > 50
36 | Cc1ccc(NC(=O)C(CCCCN)NC(=O)Nc2ccc(CN(C)c3ccc(C)cc3)cc2)cc1 [Compound 292, (S)-6-AMINO-2-(3-{4-[(METHYL-P-TOLYL-AMINO)-METHYL]-PHENYL}-UREIDO)-HEXANOIC ACID P-TOLYLAMIDE] | > 50
37 | NCCCC[C@H](NC(=O)OCC1c2ccccc2-c2ccccc21)C(=O)Nc1cccc(OCc2ccccc2)c1 [Compound 211, (S)-[5-AMINO-1-(3-BENZYLOXY-PHENYLCARBAMOYL)-PENTYL]-CARBAMIC ACID 9H-FLUOREN-9-YLMETHYL ESTER] | 10 to 50
